# Assay results from ChEMBL document CHEMBL3784929, “Pharmacokinetics of valproic acid in volunteers after a single dose study” (Biopharm Drug Dispos, 1985).
# How the values were obtained:
# Type in all cases: ADME, organism-based
# [1] = Total serum concentration in healthy human (6 volunteers) at 1 g, po administered as single dose measured after 6 hrs by gas liquid chromatography; details: read-out: Drug uptake
# [2] = Total serum concentration in healthy human (6 volunteers) at 1 g, po administered as single dose measured after 8 hrs by gas liquid chromatography; details: read-out: Drug uptake
# [3] = Total serum concentration in healthy human (6 volunteers) at 1 g, po administered as single dose measured after 10 hrs by gas liquid chromatography; details: read-out: Drug uptake
# [4] = Total serum concentration in healthy human (6 volunteers) at 1 g, po administered as single dose measured after 12 hrs by gas liquid chromatography; details: read-out: Drug uptake
# [5] = Total serum concentration in healthy human (6 volunteers) at 1 g, po administered as single dose measured after 14 hrs by gas liquid chromatography; details: read-out: Drug uptake
# [6] = Total serum concentration in healthy human (6 volunteers) at 1 g, po administered as single dose measured after 24 hrs by gas liquid chromatography; details: read-out: Drug uptake
# [7] = Total serum concentration in healthy human (6 volunteers) at 1 g, po administered as single dose measured after 30 hrs by gas liquid chromatography; details: read-out: Drug uptake
# [8] = Total serum concentration in healthy human (6 volunteers) at 1 g, po administered as single dose measured after 39 hrs by gas liquid chromatography; details: read-out: Drug uptake
# [9] = Total serum concentration in healthy human (6 volunteers) at 1 g, po administered as single dose measured after 48 hrs by gas liquid chromatography; details: read-out: Drug uptake
# [10] = test system: Serum; test: Unbound serum concentration in healthy human (6 volunteers) at 1 g, po administered as single dose measured after 0.33 hrs by enzyme multiple immunotechnique; details: in vivo
# [11] = test system: Serum; test: Unbound serum concentration in healthy human (6 volunteers) at 1 g, po administered as single dose measured after 0.66 hrs by enzyme multiple immunotechnique; details: in vivo
# [12] = test system: Serum; test: Unbound serum concentration in healthy human (6 volunteers) at 1 g, po administered as single dose measured after 1 hr by enzyme multiple immunotechnique; details: in vivo
# [13] = test system: Serum; test: Unbound serum concentration in healthy human (6 volunteers) at 1 g, po administered as single dose measured after 1.5 hrs by enzyme multiple immunotechnique; details: in vivo
# [14] = test system: Serum; test: Unbound serum concentration in healthy human (6 volunteers) at 1 g, po administered as single dose measured after 2 hrs by enzyme multiple immunotechnique; details: in vivo
# [15] = test system: Serum; test: Unbound serum concentration in healthy human (6 volunteers) at 1 g, po administered as single dose measured after 3 hrs by enzyme multiple immunotechnique; details: in vivo
# [16] = test system: Serum; test: Unbound serum concentration in healthy human (6 volunteers) at 1 g, po administered as single dose measured after 4 hrs by enzyme multiple immunotechnique; details: in vivo
# [17] = test system: Serum; test: Unbound serum concentration in healthy human (6 volunteers) at 1 g, po administered as single dose measured after 5 hrs by enzyme multiple immunotechnique; details: in vivo
# [18] = test system: Serum; test: Unbound serum concentration in healthy human (6 volunteers) at 1 g, po administered as single dose measured after 6 hrs by enzyme multiple immunotechnique; details: in vivo
# [19] = test system: Serum; test: Unbound serum concentration in healthy human (6 volunteers) at 1 g, po administered as single dose measured after 8 hrs by enzyme multiple immunotechnique; details: in vivo
# [20] = test system: Serum; test: Unbound serum concentration in healthy human (6 volunteers) at 1 g, po administered as single dose measured after 10 hrs by enzyme multiple immunotechnique; details: in vivo
# [21] = test system: Serum; test: Unbound serum concentration in healthy human (6 volunteers) at 1 g, po administered as single dose measured after 12 hrs by enzyme multiple immunotechnique; details: in vivo
# [22] = test system: Serum; test: Unbound serum concentration in healthy human (6 volunteers) at 1 g, po administered as single dose measured after 14 hrs by enzyme multiple immunotechnique; details: in vivo
# [23] = test system: Serum; test: Unbound serum concentration in healthy human (6 volunteers) at 1 g, po administered as single dose measured after 24 hrs by enzyme multiple immunotechnique; details: in vivo
# [24] = test system: Serum; test: Unbound serum concentration in healthy human (6 volunteers) at 1 g, po administered as single dose measured after 30 hrs by enzyme multiple immunotechnique; details: in vivo
# [25] = test system: Serum; test: Unbound serum concentration in healthy human (6 volunteers) at 1 g, po administered as single dose measured after 39 hrs by enzyme multiple immunotechnique; details: in vivo
# [26] = test system: Serum; test: Unbound serum concentration in healthy human (6 volunteers) at 1 g, po administered as single dose measured after 48 hrs by enzyme multiple immunotechnique; details: in vivo
# [27] = Fraction unbound in healthy human (6 volunteers) serum at 1 g, po administered as single dose measured after 0.33 hrs
# [28] = Fraction unbound in healthy human (6 volunteers) serum at 1 g, po administered as single dose measured after 0.66 hrs
# [29] = Fraction unbound in healthy human (6 volunteers) serum at 1 g, po administered as single dose measured after 1 hr
# [30] = Fraction unbound in healthy human (6 volunteers) serum at 1 g, po administered as single dose measured after 1.5 hrs
# [31] = Fraction unbound in healthy human (6 volunteers) serum at 1 g, po administered as single dose measured after 2 hrs
# [32] = Fraction unbound in healthy human (6 volunteers) serum at 1 g, po administered as single dose measured after 3 hrs
# [33] = Fraction unbound in healthy human (6 volunteers) serum at 1 g, po administered as single dose measured after 4 hrs
# [34] = Fraction unbound in healthy human (6 volunteers) serum at 1 g, po administered as single dose measured after 5 hrs
# [35] = Fraction unbound in healthy human (6 volunteers) serum at 1 g, po administered as single dose measured after 6 hrs
# [36] = Fraction unbound in healthy human (6 volunteers) serum at 1 g, po administered as single dose measured after 8 hrs
# [37] = Fraction unbound in healthy human (6 volunteers) serum at 1 g, po administered as single dose measured after 10 hrs
# [38] = Fraction unbound in healthy human (6 volunteers) serum at 1 g, po administered as single dose measured after 12 hrs
# [39] = Fraction unbound in healthy human (6 volunteers) serum at 1 g, po administered as single dose measured after 14 hrs
# [40] = Tmax in healthy human (6 volunteers) at 1 g, po administered as single dose by gas liquid chromatography; details: in vivo
# [41] = Cmax in healthy human (6 volunteers) at 1 g, po administered as single dose by gas liquid chromatography; parameters: dose 1 g, route oral; details: in vivo
# [42] = Terminal half life in healthy human (6 volunteers) at 1 g, po administered as single dose by gas liquid chromatography; details: in vivo, read-out: beta t1/2 (converted)
# [43] = Drug metabolism in healthy human (6 volunteers) assessed as excretion of valproic acid glucuronide in urine at 1 g, po administered as single dose measured upto 48 hrs by gas liquid chromatography; details: in vivo
# [44] = Total AUC in healthy human (6 volunteers) at 1 g, po administered as single dose by gas liquid chromatography; parameters: dose 1 g, time AUCmax, route oral; details: in vivo
# [45] = test system: Homo sapiens; test: fAUC in healthy human (6 volunteers) at 1 g, po administered as single dose by gas liquid chromatography; details: in vivo
# [46] = Fraction unbound in healthy human (6 volunteers) serum assessed as ratio of fAUC to total AUC at 1 g, po administered as single dose by gas liquid chromatography
# [47] = Fraction unbound in healthy human (6 volunteers) serum at 1 g, po administered as single dose
# [48] = Total serum concentration in healthy human (6 volunteers) at 1 g, po administered as single dose measured after 0.33 hrs by gas liquid chromatography; details: read-out: Drug uptake
# [49] = Total serum concentration in healthy human (6 volunteers) at 1 g, po administered as single dose measured after 0.66 hrs by gas liquid chromatography; details: read-out: Drug uptake
# [50] = Total serum concentration in healthy human (6 volunteers) at 1 g, po administered as single dose measured after 1 hr by gas liquid chromatography; details: read-out: Drug uptake
# [51] = Total serum concentration in healthy human (6 volunteers) at 1 g, po administered as single dose measured after 1.5 hrs by gas liquid chromatography; details: read-out: Drug uptake
# [52] = Total serum concentration in healthy human (6 volunteers) at 1 g, po administered as single dose measured after 2 hrs by gas liquid chromatography; details: read-out: Drug uptake
# [53] = Total serum concentration in healthy human (6 volunteers) at 1 g, po administered as single dose measured after 3 hrs by gas liquid chromatography; details: read-out: Drug uptake
# [54] = Total serum concentration in healthy human (6 volunteers) at 1 g, po administered as single dose measured after 4 hrs by gas liquid chromatography; details: read-out: Drug uptake
# [55] = Total serum concentration in healthy human (6 volunteers) at 1 g, po administered as single dose measured after 5 hrs by gas liquid chromatography; details: read-out: Drug uptake
smiles,measurement,setting,value
CCCC(CCC)C(=O)[O-].[Na+] [VALPROATE SODIUM],concentration at 6 h,[1],85.9 µg/mL
same,concentration at 8 h,[2],66.9 µg/mL
same,concentration at 10 h,[3],61.4 µg/mL
same,concentration at 12 h,[4],54.1 µg/mL
same,concentration at 14 h,[5],47.5 µg/mL
same,concentration at 24 h,[6],33.3 µg/mL
same,concentration at 30 h,[7],23.4 µg/mL
same,concentration at 39 h,[8],15.3 µg/mL
same,concentration at 48 h,[9],10.6 µg/mL
same,Drug uptake(free),[10],2.1 µg/mL
same,Drug uptake(free),[11],4.9 µg/mL
same,Drug uptake(free),[12],5.3 µg/mL
same,Drug uptake(free),[13],4.3 µg/mL
same,Drug uptake(free),[14],6.1 µg/mL
same,Drug uptake(free),[15],4.7 µg/mL
same,Drug uptake(free),[16],4.6 µg/mL
same,Drug uptake(free),[17],3.6 µg/mL
same,Drug uptake(free),[18],3.8 µg/mL
same,Drug uptake(free),[19],3.9 µg/mL
same,Drug uptake(free),[20],2.7 µg/mL
same,Drug uptake(free),[21],1.9 µg/mL
same,Drug uptake(free),[22],1.2 µg/mL
same,Drug uptake(free),[23],0 µg/mL
same,Drug uptake(free),[24],0 µg/mL
same,Drug uptake(free),[25],0 µg/mL
same,Drug uptake(free),[26],0 µg/mL
same,fraction unbound at 0.33 h,[27],0.04
same,fraction unbound at 0.66 h,[28],0.052
same,fraction unbound at 1 h,[29],0.051
same,fraction unbound at 1.5 h,[30],0.042
same,fraction unbound at 2 h,[31],0.058
same,fraction unbound at 3 h,[32],0.049
same,fraction unbound at 4 h,[33],0.049
same,fraction unbound at 5 h,[34],0.04
same,fraction unbound at 6 h,[35],0.044
same,fraction unbound at 8 h,[36],0.059
same,fraction unbound at 10 h,[37],0.046
same,fraction unbound at 12 h,[38],0.037
same,fraction unbound at 14 h,[39],0.026
same,Tmax,[40],2 h
same,Cmax,[41],108 µg/mL
same,half-life,[42],14.9 h
same,Drug metabolism,[43],176.6 mg
same,AUC,[44],2120 µg·h/mL
same,fAUC,[45],84.2 µg·h/mL
same,fraction unbound,[46],0.041
same,fraction unbound,[47],0.049
same,concentration at 0.33 h,[48],52.3 µg/mL
same,concentration at 0.66 h,[49],95.2 µg/mL
same,concentration at 1 h,[50],105 µg/mL
same,concentration at 1.5 h,[51],103 µg/mL
same,concentration at 2 h,[52],105 µg/mL
same,concentration at 3 h,[53],96.3 µg/mL
same,concentration at 4 h,[54],92.9 µg/mL
same,concentration at 5 h,[55],88.6 µg/mL
